The results in this text go back to ChEMBL document CHEMBL1201862, “PubChem BioAssay data set” (2004).

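Compound exposure: 48 hours, 5 concentrations, 96-well plates. GI50 marks 50% less growth.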 Activity calls are given as the source filed them. No stated cut-off is given here; in the data, active = GI50 up to about 1.1 µM and inactive = higher.

Some test systems named below: HL-60; MDA-MB-231; IGROV-1; MCF7; SK-OV-3; MDA-MB-435; COLO 205; HCT-15; OVCAR-8; LOX IMVI; CAKI-1; SK-MEL-28; NCI-H522; TK-10; NCI-H226; SF-539; NCI-H460; ACHN; SN12C; T47D.
Assay in all cases: NCI anticancer screen, dose series, 48 h

Turning to `COc1cc(C(=O)c2cocc2C(=O)c2ccc3c(c2)OCO3)cc(OC)c1OC`, the GI50 in the experiment with HL-60 was 0.0946 µM (active); in the experiment on MDA-MB-231 it was 2.65 µM (inactive); in the experiment on IGROV-1, 1.5 µM (inactive); in the experiment on MCF7, 0.217 µM (active); with SK-OV-3, 2.49 µM (inactive); in the experiment with MDA-MB-435, 0.0916 µM (active). Moreover, the GI50 with COLO 205 is 4.91 µM (inactive); in the experiment on HCT-15, 0.347 µM; with OVCAR-8, 1.35 µM (inactive); in the experiment with LOX IMVI, 0.483 µM (active); in the experiment on CAKI-1, 0.378 µM (active); with SK-MEL-28, 1.46 µM (inactive). Moreover, the GI50 with NCI-H522 is 0.268 µM (active); in the experiment on TK-10, 3.18 µM (inactive); in the experiment with NCI-H226, 1.8 µM (inactive); in the experiment with SF-539, 0.399 µM (active); in the experiment with NCI-H460, 0.658 µM (active); with ACHN, 0.977 µM (active). In addition, the GI50 with SN12C is 1.49 µM (inactive).

For `O=C(O)c1ccccc1C1c2ccccc2Oc2ccccc21`, the GI50 with HL-60 was 39 µM (inactive); with MDA-MB-231, > 100 µM (inactive); with IGROV-1 it was 76 µM (inactive); in the experiment with MDA-MB-435, 52.4 µM (inactive); with T47D, 71.9 µM (inactive); in the experiment with HCT-15, 36.9 µM. The GI50 in the experiment on OVCAR-8 is 96.6 µM (inactive); in the experiment with LOX IMVI, 98.4 µM (inactive); in the experiment with CAKI-1, 34.1 µM (inactive); in the experiment on SK-MEL-28 it was > 100 µM (inactive); in the experiment with NCI-H522, 26.8 µM (inactive); in the experiment on TK-10 it was > 100 µM (inactive). For the same molecule, the GI50 in the experiment on NCI-H226 is 16.4 µM (inactive); in the experiment with NCI-H460, 39.9 µM (inactive); in the experiment with ACHN it was 34.6 µM (inactive); with SN12C, 46 µM (inactive).

Consider `CN(C)CCCNc1ncnc2[nH]cnc12`, for which the GI50 in the experiment with MDA-MB-231, in the experiment with IGROV-1, in the experiment on MCF7, in the experiment on SK-OV-3, in the experiment on MDA-MB-435 and with T47D was > 100 µM (inactive) each time. In addition, the GI50 in the experiment with COLO 205 was > 100 µM (inactive); in the experiment with HCT-15, above 100 µM; in the experiment with OVCAR-8, > 100 µM (inactive); in the experiment with LOX IMVI, > 100 µM (inactive); in the experiment with CAKI-1, > 100 µM (inactive); in the experiment with SK-MEL-28, > 100 µM (inactive). For the same molecule, the GI50 in the experiment on NCI-H522, with TK-10, in the experiment with NCI-H226, in the experiment on NCI-H460, in the experiment with ACHN and in the experiment with SN12C was > 100 µM (inactive) each time.

For `Sc1ncc2[nH]nnc2n1`, the GI50 in the experiment on HL-60, in the experiment with MDA-MB-231, in the experiment on IGROV-1, in the experiment with MCF7, in the experiment with MDA-MB-435 and with COLO 205 was > 100 µM (inactive) in each case. For the same molecule, the GI50 is above 100 µM in the experiment with HCT-15; > 100 µM (inactive) in the experiment on OVCAR-8; > 100 µM (inactive) in the experiment with LOX IMVI; > 100 µM (inactive) in the experiment on CAKI-1; > 100 µM (inactive) in the experiment with SK-MEL-28; > 100 µM (inactive) in the experiment with NCI-H522. Also, the GI50 in the experiment with TK-10, in the experiment with NCI-H226, in the experiment with SF-539, in the experiment on NCI-H460, with ACHN and with SN12C was > 100 µM (inactive) each time.

Regarding `O=c1oc2ccccc2cc1-c1nnc(-c2ccccc2)s1`, the GI50 was 0.0279 µM (active) in the experiment on HL-60; 19.1 µM (inactive) with MDA-MB-231; 22.4 µM (inactive) in the experiment on IGROV-1; 7.67 µM (inactive) with MCF7; 48.6 µM (inactive) with SK-OV-3; 1.65 µM (inactive) in the experiment on MDA-MB-435. The GI50 in the experiment on COLO 205 is > 53 µM (inactive); in the experiment with HCT-15, 6.73 µM; with OVCAR-8, 22.1 µM (inactive); with LOX IMVI, > 72.8 µM (inactive); in the experiment on CAKI-1, > 64.9 µM (inactive); with SK-MEL-28, 98.6 µM (inactive). Further, the GI50 in the experiment on NCI-H522 was 13.7 µM (inactive); in the experiment on TK-10, > 36.6 µM (inactive); in the experiment on NCI-H226 it was > 56 µM (inactive); in the experiment on SF-539, 14.5 µM (inactive); with NCI-H460, 28.1 µM (inactive); in the experiment with ACHN, 32 µM (inactive). For the same molecule, the GI50 in the experiment on SN12C is 60.5 µM (inactive).

Regarding `Cc1ccc(S(=O)(=O)O/N=C2\CCC\C2=C/c2ccccc2)cc1`, the GI50 in the experiment with HL-60 is 6.82 µM (inactive); in the experiment with IGROV-1 it was 26.2 µM (inactive); in the experiment with SK-OV-3, 63.4 µM (inactive); with COLO 205, 16.3 µM (inactive); in the experiment with HCT-15 it was 22.9 µM; in the experiment on OVCAR-8, 29 µM (inactive). The GI50 is 25.9 µM (inactive) with LOX IMVI; 17.6 µM (inactive) in the experiment with CAKI-1; 11.1 µM (inactive) in the experiment on SK-MEL-28; 18.9 µM (inactive) in the experiment with NCI-H522; 16.6 µM (inactive) in the experiment with TK-10; 18.5 µM (inactive) with NCI-H226. The GI50 was 19.9 µM (inactive) in the experiment on SF-539, 19.5 µM (inactive) in the experiment with NCI-H460, 11.1 µM (inactive) in the experiment on ACHN and 45 µM (inactive) in the experiment with SN12C.

Regarding `Cn1c(=O)c2c(nc(NCCCCl)n2CC(=O)NCCCCl)n(C)c1=O`, the GI50 in the experiment with HL-60, in the experiment on MDA-MB-231, in the experiment with IGROV-1, in the experiment with SK-OV-3, in the experiment with MDA-MB-435 and in the experiment on T47D was > 100 µM (inactive) each time. Further, the GI50 was > 100 µM (inactive) with COLO 205; above 100 µM in the experiment with HCT-15; > 100 µM (inactive) in the experiment on OVCAR-8; > 100 µM (inactive) with LOX IMVI; > 100 µM (inactive) with CAKI-1; > 100 µM (inactive) with SK-MEL-28. Also, the GI50 with NCI-H522, with TK-10, with NCI-H226, in the experiment on NCI-H460, in the experiment on ACHN and in the experiment on SN12C was > 100 µM (inactive) each time.

Take `Cn1c(SCc2ccc(F)cc2)nnc1C12CC3CC(CC(C3)C1)C2`: the GI50 in the experiment with HL-60 was 11.1 µM (inactive); in the experiment with MDA-MB-231 it was 20.1 µM (inactive); in the experiment on IGROV-1 it was 12.7 µM (inactive); with SK-OV-3 it was 52.1 µM (inactive); in the experiment with MDA-MB-435 it was 22.5 µM (inactive); in the experiment with T47D, 56.9 µM (inactive). Also, the GI50 was 17 µM (inactive) in the experiment with COLO 205; 26.4 µM in the experiment with HCT-15; 31.8 µM (inactive) in the experiment with OVCAR-8; 22.2 µM (inactive) in the experiment on LOX IMVI; > 100 µM (inactive) with CAKI-1; 24.3 µM (inactive) in the experiment with SK-MEL-28. Further, the GI50 with NCI-H522 is 36.9 µM (inactive); with NCI-H226, 33.5 µM (inactive); with SF-539, 24.5 µM (inactive); in the experiment on NCI-H460, 40 µM (inactive); with ACHN, 33.5 µM (inactive); with SN12C it was 43.2 µM (inactive).

On to `CC1CCC(O)(C(C)(C(=O)O)c2ccccc2)CC1` (stereo not given), for which the GI50 with HL-60 is > 100 µM (inactive); in the experiment with MDA-MB-231 it was > 100 µM (inactive); in the experiment with IGROV-1 it was > 100 µM (inactive); with MDA-MB-435 it was > 100 µM (inactive); in the experiment with T47D, > 100 µM (inactive); in the experiment with HCT-15, above 100 µM. Besides, the GI50 is > 100 µM (inactive) in the experiment on OVCAR-8; > 100 µM (inactive) in the experiment on LOX IMVI; 57.4 µM (inactive) in the experiment on CAKI-1; > 100 µM (inactive) with SK-MEL-28; > 100 µM (inactive) in the experiment with NCI-H522; > 100 µM (inactive) in the experiment on TK-10. Moreover, the GI50 is 91.6 µM (inactive) with NCI-H226, 42.8 µM (inactive) in the experiment on NCI-H460, > 100 µM (inactive) in the experiment with ACHN and > 100 µM (inactive) in the experiment on SN12C.

`Cn1c(=O)n2n(c1=O)C([S+]([O-])c1ccccc1)C2` (stereo not given): the GI50 in the experiment on MDA-MB-231 is > 100 µM (inactive); in the experiment with IGROV-1, 32.1 µM (inactive); with MCF7, > 100 µM (inactive); in the experiment on SK-OV-3 it was > 100 µM (inactive); in the experiment on MDA-MB-435 it was > 100 µM (inactive); in the experiment on COLO 205, > 100 µM (inactive). In addition, the GI50 with HCT-15 is above 100 µM; in the experiment with OVCAR-8 it was > 100 µM (inactive); in the experiment on LOX IMVI, 38.9 µM (inactive); with CAKI-1, > 100 µM (inactive); in the experiment on SK-MEL-28, > 100 µM (inactive); in the experiment on NCI-H522 it was 30.8 µM (inactive). The GI50 with TK-10, in the experiment with SF-539, with NCI-H460, in the experiment with ACHN and in the experiment on SN12C was > 100 µM (inactive) throughout.

For `CCOC(=O)c1c(N2CCCC2)[nH]c(=O)c(C(c2ccc(N(C)C)cc2)c2c(O)c(C(=O)OCC)c(N3CCCC3)[nH]c2=O)c1O`, the GI50 in the experiment with MDA-MB-231 was 82.2 µM (inactive); in the experiment with MCF7, > 100 µM (inactive); in the experiment on SK-OV-3, > 100 µM (inactive); with MDA-MB-435, > 100 µM (inactive); in the experiment on T47D it was > 100 µM (inactive); in the experiment on COLO 205, > 100 µM (inactive). For the same molecule, the GI50 was above 100 µM in the experiment on HCT-15; > 100 µM (inactive) in the experiment with OVCAR-8; > 100 µM (inactive) in the experiment on LOX IMVI; > 100 µM (inactive) with CAKI-1; > 100 µM (inactive) in the experiment with SK-MEL-28; > 100 µM (inactive) in the experiment with NCI-H522. Also, the GI50 in the experiment with TK-10 is 94.2 µM (inactive); in the experiment on NCI-H226, > 100 µM (inactive); with SF-539 it was > 100 µM (inactive); with NCI-H460, > 100 µM (inactive); in the experiment on ACHN, > 100 µM (inactive); in the experiment with SN12C, > 100 µM (inactive).

Consider `Cc1ccc2c(O)cc(-c3ccc4ccccc4c3)nc2n1`, for which the GI50 in the experiment with HL-60 was 1.82 µM (inactive); in the experiment on MDA-MB-231, 14.3 µM (inactive); in the experiment on IGROV-1, 2.6 µM (inactive); in the experiment on MCF7 it was 2.28 µM (inactive); in the experiment on SK-OV-3, 3.37 µM (inactive); in the experiment on T47D, 7 µM (inactive). Also, the GI50 is 2.11 µM (inactive) in the experiment with COLO 205; 3.54 µM with HCT-15; 5.82 µM (inactive) in the experiment with OVCAR-8; 5.14 µM (inactive) with LOX IMVI; 5.9 µM (inactive) in the experiment on SK-MEL-28; 3.32 µM (inactive) in the experiment on NCI-H522. Moreover, the GI50 in the experiment on TK-10 was 8.45 µM (inactive); in the experiment on NCI-H226, 5.81 µM (inactive); with SF-539, 4.74 µM (inactive); in the experiment on ACHN, 4.72 µM (inactive); in the experiment on SN12C it was 5.3 µM (inactive).
